Experimental data: ChEMBL document CHEMBL5050861 (2021); call rule not given here
Values after ≈ are worked out from the molar mass of the structure shown.

Legend:
[1] = Stability of compound in rat microsomes assessed as half-life; type: ADME, Microsome
[2] = Kinetic aqueous solubility of the compound; type: physicochemical; conditions: buffer; read-out: Kinetic_solubility
[3] = Permeability of compound by PAMPA assay; type: ADME; conditions: for Papp: read-out: permeability
[4] = Inhibition of recombinant mouse GALK1 using ATP as substrate incubated for 1 hr and measured by Kinase-Glo assay

half-life [1] | solubility kinetic [2] | Papp [3] | IC50 ([4]; read-out: IC50) | permeability [3] | IC50 [4] | SMILES
> 30 min | > 51 µg/mL | < 1 ×10⁻⁶ cm/s | 19.3 µM | – | – | CC1=C(C(=O)Nc2cc(C(=O)O)ccn2)C(c2ccc(C)cc2Cl)N=C(Nc2nc3ncccc3o2)N1 (stereo unspecified)
> 30 min | 6.4 µg/mL (≈ 12.4 µM) | – | 19.3 µM | 1044 10^-6 cm/s | – | CC1=C(C(=O)Nc2nncs2)C(c2nn(C)cc2Br)N=C(Nc2nc3ccccc3o2)N1 (stereo unspecified)
> 30 min | > 74 µg/mL | < 1 ×10⁻⁶ cm/s | 3.06 µM | – | – | CC1=C(C(=O)Nc2ccnc(C(=O)O)c2)C(c2ccccc2Cl)N=C(Nc2nc3ccccc3o2)N1 (stereo unspecified)
> 30 min | > 79 µg/mL | < 1 ×10⁻⁶ cm/s | 21.7 µM | – | – | COc1ccc2nc(NC3=NC(c4ccccc4Cl)C(C(=O)Nc4cc(C(=O)O)ccn4)=C(C)N3)oc2c1 (stereo unspecified)
> 30 min | > 78 µg/mL | < 1 ×10⁻⁶ cm/s | 21.7 µM | – | – | CC1=C(C(=O)Nc2cc(C(=O)O)ccn2)[C@@H](c2ccc(C)cc2Cl)N=C(Nc2nc3cccc(N)c3o2)N1
> 30 min | > 90 µg/mL | < 1 ×10⁻⁶ cm/s | 0.69 µM | – | – | CC1=C(C(=O)Nc2cc(C(=O)O)ccn2)C(c2ccc(-c3cnc(C)nc3)cc2Cl)N=C(Nc2nc3ccc(F)cc3o2)N1 (stereo unspecified)
> 30 min | 1.23 µg/mL (≈ 2.37 µM) | < 5 ×10⁻⁶ cm/s | 12.2 µM | – | – | O=C1CC(C(=O)Nc2nncs2)CC2=C1C(c1ccccc1Cl)N=C(Nc1nc3ccccc3o1)N2 (stereo unspecified)
> 30 min | > 84 µg/mL | < 1 ×10⁻⁶ cm/s | 34.4 µM | – | – | CC1=C(C(=O)Nc2cc(C(=O)O)ccn2)C(c2cccc([N+](=O)[O-])c2Cl)N=C(Nc2nc3ccc(F)cc3o2)N1 (stereo unspecified)
8.63 min | 2.42 µg/mL (≈ 4.46 µM) | 894 ×10⁻⁶ cm/s | 48.5 µM | – | – | CC1=C(C(=O)Nc2ccc(N3CCNCC3)cc2)C(c2ccccc2Cl)N=C(Nc2nc3ccccc3o2)N1 (stereo unspecified)
5.09 min | < 1 µg/mL | – | 15.3 µM | 1362.3 10^-6 cm/s | – | CC1=C(C(=O)NCc2ccccc2CO)C(c2ccccc2Cl)N=C(Nc2nc3ccccc3o2)N1 (stereo unspecified)
> 30 min | > 51 µg/mL | < 1 ×10⁻⁶ cm/s | 6.85 µM | – | – | CC1=C(C(=O)Nc2cc(C(=O)O)ccn2)C(c2ccc(C)cc2Cl)N=C(Nc2nc3cnccc3o2)N1 (stereo unspecified)
> 30 min | < 1 µg/mL | < 6.8 ×10⁻⁶ cm/s | 4.85 µM | – | – | CC1=C(C(=O)Nc2cc(C#N)ccn2)C(c2ccccc2Cl)N=C(Nc2nc3ccc(F)cc3o2)N1 (stereo unspecified)
> 30 min | > 81 µg/mL | < 1 ×10⁻⁶ cm/s | 34.4 µM | – | – | COc1ccc([C@H]2N=C(Nc3nc4cccc(N)c4o3)NC(C)=C2C(=O)Nc2cc(C(=O)O)ccn2)c(Cl)c1
> 30 min | > 81 µg/mL | < 1 ×10⁻⁶ cm/s | 3.85 µM | – | – | CC1=C(C(=O)Nc2cc(C(=O)O)ccn2)C(c2ccc(C#N)cc2Cl)N=C(Nc2nc3ccc(F)cc3o2)N1 (stereo unspecified)
> 30 min | 29.9 µg/mL (≈ 54.9 µM) | < 1 ×10⁻⁶ cm/s | 7.69 µM | – | – | CC1=C(C(=O)Nc2cc(-c3nn[nH]n3)ccn2)C(c2ccccc2Cl)N=C(Nc2nc3ccc(F)cc3o2)N1 (stereo unspecified)
> 30 min | 2.4 µg/mL (≈ 4 µM) | < 1.7 ×10⁻⁶ cm/s | 3.85 µM | – | – | CC1=C(C(=O)Nc2cc(C(=O)O)ccn2)C(c2ccc(Br)cc2Cl)N=C(Nc2nc3ccc(F)cc3o2)N1 (stereo unspecified)
> 30 min | 58.2 µg/mL (≈ 118 µM) | < 1 ×10⁻⁶ cm/s | 4.85 µM | – | – | O=C(O)CNC(=O)C1CC(=O)C2=C(C1)NC(Nc1nc3ccccc3o1)=NC2c1ccccc1Cl (stereo unspecified)
> 30 min | < 1 µg/mL | – | 9.68 µM | 1124.1 10^-6 cm/s | – | CC1=C(C(=O)Nc2cccc(CO)c2)C(c2ccccc2Cl)N=C(Nc2nc3ccccc3o2)N1 (stereo unspecified)
16.4 min | < 1 µg/mL | < 11.8 ×10⁻⁶ cm/s | 12.2 µM | – | – | CC1=C(C(=O)Nc2ccc(-n3cccn3)cc2)C(c2ccccc2Cl)N=C(Nc2nc3ccccc3o2)N1 (stereo unspecified)
> 30 min | > 51 µg/mL | < 1 ×10⁻⁶ cm/s | – | – | Not Active | CC1=C(C(=O)Nc2cc(C(=O)O)ccn2)C(c2ccc(C)cc2Cl)N=C(Nc2nc3cccnc3o2)N1 (stereo unspecified)
> 30 min | < 1 µg/mL | < 10.3 ×10⁻⁶ cm/s | – | – | Not Active | CC1=C(C(=O)Nc2nnc(-c3cccnc3)s2)C(c2ccccc2Cl)N=C(Nc2nc3ccc(Cl)cc3o2)N1 (stereo unspecified)
> 30 min | > 85 µg/mL | < 1 ×10⁻⁶ cm/s | 19.3 µM | – | – | CCOC(=O)N1C(Nc2nc3ccccc3o2)=NC(c2ccccc2Cl)C(C(=O)Nc2cc(C(=O)O)ccn2)=C1C (stereo unspecified)
9.22 min | < 1 µg/mL | < 21.9 ×10⁻⁶ cm/s | 6.85 µM | – | – | CCn1cc(CNC(=O)C2=C(C)NC(Nc3nc4ccc(F)cc4o3)=NC2c2ccc(C)cc2Cl)cn1 (stereo unspecified)
> 30 min | 60.6 µg/mL (≈ 117 µM) | < 1.3 ×10⁻⁶ cm/s | 19.3 µM | – | – | CC1=C(C(=O)NCc2cccc(C(=O)O)c2)C(c2ccccc2Cl)N=C(Nc2nc3ccccc3o2)N1 (stereo unspecified)
2.1 min | 15.3 µg/mL (≈ 33.9 µM) | – | 24.3 µM | 1046.7 10^-6 cm/s | – | CC1=C(C(=O)N2CCOCC2)C(c2ccccc2Cl)N=C(Nc2nc3ccccc3o2)N1 (stereo unspecified)

half-life [1] | solubility kinetic [2] | Papp [3] | IC50 ([4]; read-out: IC50) | permeability [3] | IC50 [4] | SMILES
> 30 min | < 1 µg/mL | < 14.4 ×10⁻⁶ cm/s | 6.11 µM | – | – | CC1=C(C(=O)Nc2nncs2)C(c2ccc(C)cc2Cl)N=C(Nc2nc3ccccc3o2)N1 (stereo unspecified)
> 30 min | 52.6 µg/mL (≈ 120 µM) | < 1 ×10⁻⁶ cm/s | 6.85 µM | – | – | O=C1CC(C(=O)O)CC2=C1C(c1ccccc1Cl)N=C(Nc1nc3ccccc3o1)N2 (stereo unspecified)
> 30 min | < 1 µg/mL | < 1.5 ×10⁻⁶ cm/s | 10.9 µM | – | – | CC1=C(C(=O)Nc2nnc(-c3cccnc3)s2)C(c2ccccc2Cl)N=C(Nc2nc3cc(C)ccc3o2)N1 (stereo unspecified)
> 30 min | < 1 µg/mL | < 14.9 ×10⁻⁶ cm/s | 15.3 µM | – | – | CC1=C(C(=O)Nc2ccc(Br)cc2)C(c2ccccc2Cl)N=C(Nc2nc3ccccc3o2)N1 (stereo unspecified)
> 30 min | 26.3 µg/mL (≈ 47.6 µM) | < 1 ×10⁻⁶ cm/s | 21.7 µM | – | – | CC1=C(C(=O)NCc2cnn(C)c2)C(c2ccc(C)cc2Cl)N=C(Nc2nc3ccc(F)c(C(=O)O)c3o2)N1 (stereo unspecified)
> 30 min | 47 µg/mL (≈ 91.1 µM) | < 1 ×10⁻⁶ cm/s | 10.9 µM | – | – | CC1=C(C(=O)NCc2ccc(C(=O)O)cc2)C(c2ccccc2Cl)N=C(Nc2nc3ccccc3o2)N1 (stereo unspecified)
> 30 min | 61.8 µg/mL (≈ 122 µM) | < 9.8 ×10⁻⁶ cm/s | 12.2 µM | – | – | CN(C)CCNC(=O)C1CC(=O)C2=C(C1)NC(Nc1nc3ccccc3o1)=NC2c1ccccc1Cl (stereo unspecified)
> 30 min | > 67 µg/mL | > 1230 ×10⁻⁶ cm/s | 15.3 µM | – | – | CC1=C(C(=O)NCCN(C)C)C(c2ccccc2Cl)N=C(Nc2nc3ccccc3o2)N1 (stereo unspecified)
> 30 min | > 53 µg/mL | < 1 ×10⁻⁶ cm/s | 1.41 µM | – | – | CC1=C(C(=O)Nc2cc(C(=O)O)ccn2)[C@H](c2ccc(C)cc2Cl)N=C(Nc2nc3cccc(N)c3o2)N1
10.3 min | < 1 µg/mL | < 17.4 ×10⁻⁶ cm/s | 13.7 µM | – | – | COC(=O)Cc1cccc(NC(=O)C2=C(C)NC(Nc3nc4ccccc4o3)=NC2c2ccccc2Cl)c1 (stereo unspecified)
> 30 min | 60 µg/mL (≈ 119 µM) | < 1 ×10⁻⁶ cm/s | 6.85 µM | – | – | CC1=C(C(=O)Nc2cccc(C(=O)O)n2)C(c2ccccc2Cl)N=C(Nc2nc3ccccc3o2)N1 (stereo unspecified)
> 30 min | 55.6 µg/mL (≈ 107 µM) | < 1 ×10⁻⁶ cm/s | 1.72 µM | – | – | CC1=C(C(=O)Nc2cc(C(=O)O)ccn2)[C@H](c2ccccc2Cl)N=C(Nc2nc3ccc(F)cc3o2)N1
> 30 min | > 76 µg/mL | < 1.3 ×10⁻⁶ cm/s | 34.4 µM | – | – | CC1=C(C(=O)Nc2cc(C(=O)O)ccn2)[C@@H](c2ccccc2Cl)N=C(Nc2nc3cccc(N)c3o2)N1
> 30 min | 19.4 µg/mL (≈ 32.9 µM) | < 1 ×10⁻⁶ cm/s | 10.9 µM | – | – | CC1=C(C(=O)Nc2cc(C(=O)O)ccn2)C(c2ccc(C(F)(F)F)cc2Cl)N=C(Nc2nc3ccc(F)cc3o2)N1 (stereo unspecified)
> 30 min | > 87 µg/mL | < 1 ×10⁻⁶ cm/s | 0.97 µM | – | – | CC1=C(C(=O)Nc2cc(C(=O)O)ccn2)C(c2ccc(-n3ccnc3)cc2Cl)N=C(Nc2nc3ccc(F)cc3o2)N1 (stereo unspecified)
> 30 min | > 87 µg/mL | < 1 ×10⁻⁶ cm/s | 10.9 µM | – | – | CC1=C(C(=O)Nc2cc(C(=O)O)ccn2)C(c2ccc(N3CCCC3)cc2Cl)N=C(Nc2nc3ccc(F)cc3o2)N1 (stereo unspecified)
> 30 min | 29 µg/mL (≈ 60.4 µM) | < 2 ×10⁻⁶ cm/s | 5.44 µM | – | – | O=C1CC(C(=O)NCCO)CC2=C1C(c1ccccc1Cl)N=C(Nc1nc3ccccc3o1)N2 (stereo unspecified)
6.56 min | 1.8 µg/mL (≈ 3.81 µM) | – | 19.3 µM | 1424 10^-6 cm/s | – | CC1=C(C(=O)NCc2ccccn2)C(c2ccccc2Cl)N=C(Nc2nc3ccccc3o2)N1 (stereo unspecified)
> 30 min | > 79 µg/mL | < 1 ×10⁻⁶ cm/s | 17.2 µM | – | – | CC1=C(C(=O)Nc2cc(C(=O)O)ccn2)C(c2cccc(N)c2Cl)N=C(Nc2nc3ccc(F)cc3o2)N1 (stereo unspecified)
1.58 min | < 1 µg/mL | – | 19.3 µM | 1248.8 10^-6 cm/s | – | CC1=C(C(=O)NCc2cccnc2)C(c2ccccc2Cl)N=C(Nc2nc3ccccc3o2)N1 (stereo unspecified)
> 30 min | > 77 µg/mL | < 1 ×10⁻⁶ cm/s | 3.43 µM | – | – | CC1=C(C(=O)Nc2ccc(C(=O)O)cn2)C(c2ccccc2Cl)N=C(Nc2nc3ccc(F)cc3o2)N1 (stereo unspecified)
> 30 min | > 76 µg/mL | < 1 ×10⁻⁶ cm/s | 30.6 µM | – | – | CC1=C(C(=O)Nc2cc(C(=O)O)ccn2)C(c2ccccc2Cl)N=C(Nc2nc3c(N)cccc3o2)N1 (stereo unspecified)
> 30 min | < 1 µg/mL | < 6.3 ×10⁻⁶ cm/s | 6.85 µM | – | – | CC1=C(C(=O)Nc2ccc(C(N)=O)cc2)C(c2ccccc2Cl)N=C(Nc2nc3ccccc3o2)N1 (stereo unspecified)
7.71 min | < 1 µg/mL | – | 17.2 µM | 1038.5 10^-6 cm/s | – | CC1=C(C(=O)Nc2ccccc2CO)C(c2ccccc2Cl)N=C(Nc2nc3ccccc3o2)N1 (stereo unspecified)
